The values that follow come from article PMC5298231, “The Malaria Parasite's Lactate Transporter PfFNT Is the Target of Antiplasmodial Compounds Identified in Whole Cell Phenotypic Screens” (PLoS Pathogens, 2017).

The test system of this assay is erythrocytes infected with 3D7 trophozoites. In kind it is cell-based, Plasmodium falciparum. Conditions: sheet Ratio; for Ratio of metabolite abundance, Exp1_1hr: Exp1, 1hr; for Ratio of metabolite abundance, Exp1_3hr: Exp1, 3hr; for Ratio of metabolite abundance, Exp1_6hr: Exp1, 6hr; for Ratio of metabolite abundance, Exp2_1hr: Exp2, 1hr; for Ratio of metabolite abundance, Exp2_3hr: Exp2, 3hr; for Ratio of metabolite abundance, Exp2_6hr: Exp2, 6hr; for Ratio of metabolite abundance, Exp3_1hr: Exp3, 1hr; for Ratio of metabolite abundance, Exp3_3hr: Exp3, 3hr; for Ratio of metabolite abundance, Exp3_6hr: Exp3, 6hr.

Peptide text beside a SMILES is read from it.

Regarding `NC(=O)C1=CN([C@@H]2O[C@H](COP(=O)(O)OP(=O)(O)OC[C@H]3O[C@@H](n4cnc5c(N)ncnc54)[C@H](O)[C@@H]3O)[C@@H](O)[C@H]2O)C=CC1` [NADH], the “Ratio of metabolite abundance, Exp1_1hr” value is reported as 0.4095; the “Ratio of metabolite abundance, Exp1_3hr” value is 0.2777; the “Ratio of metabolite abundance, Exp1_6hr” value was determined as 0.1491; the “Ratio of metabolite abundance, Exp2_1hr” value is 0.4801. For the same compound, the “Ratio of metabolite abundance, Exp2_3hr” value was 0.5784; the “Ratio of metabolite abundance, Exp2_6hr” value was determined as 0.1509; the “Ratio of metabolite abundance, Exp3_1hr” value worked out at 0.301; the “Ratio of metabolite abundance, Exp3_3hr” value was found to be 0.1742. Also, the “Ratio of metabolite abundance, Exp3_6hr” value amounted to 0.1364.
`NC(=O)c1ccc[n+]([C@@H]2O[C@H](COP(=O)([O-])OP(=O)(O)OC[C@H]3O[C@@H](n4cnc5c(N)ncnc54)[C@H](OP(=O)(O)O)[C@@H]3O)[C@@H](O)[C@H]2O)c1` [NADP+]: the “Ratio of metabolite abundance, Exp1_1hr” value is 0.7131; the “Ratio of metabolite abundance, Exp1_3hr” value is 0.6937; the “Ratio of metabolite abundance, Exp1_6hr” value was 0.7662; the “Ratio of metabolite abundance, Exp2_1hr” value stood at 1.042. For the same compound, the “Ratio of metabolite abundance, Exp2_3hr” value turned out to be 0.9729; the “Ratio of metabolite abundance, Exp2_6hr” value came out at 0.8073; the “Ratio of metabolite abundance, Exp3_1hr” value is recorded as 0.7811; the “Ratio of metabolite abundance, Exp3_3hr” value is reported as 0.7388. In addition, the “Ratio of metabolite abundance, Exp3_6hr” value was 0.8166.
Regarding `O=C(O)c1cc(=O)[nH]c(=O)[nH]1` [Orotate], the “Ratio of metabolite abundance, Exp1_1hr” value came out at 0.5025; the “Ratio of metabolite abundance, Exp1_3hr” value worked out at 0.4692; the “Ratio of metabolite abundance, Exp1_6hr” value worked out at 0.3315; the “Ratio of metabolite abundance, Exp2_1hr” value is listed as 0.4622. Besides, the “Ratio of metabolite abundance, Exp2_3hr” value stood at 0.4131; the “Ratio of metabolite abundance, Exp2_6hr” value turned out to be 0.4313; the “Ratio of metabolite abundance, Exp3_1hr” value worked out at 0.3435; the “Ratio of metabolite abundance, Exp3_3hr” value is given as 0.2448. Also, the “Ratio of metabolite abundance, Exp3_6hr” value is given as 0.2332.
`C[C@H](NC(=O)[C@@H]1CCCN1)C(=O)N[C@@H](CCC(=O)O)C(=O)N[C@@H](Cc1ccccc1)C(=O)O` [PAEF] (H-PAEF-OH): the “Ratio of metabolite abundance, Exp1_1hr” value is 0.6152; the “Ratio of metabolite abundance, Exp1_3hr” value is reported as 0.1924; the “Ratio of metabolite abundance, Exp1_6hr” value was 1.448; the “Ratio of metabolite abundance, Exp2_1hr” value was 0.9598. Also, the “Ratio of metabolite abundance, Exp2_3hr” value amounted to 0.5962; the “Ratio of metabolite abundance, Exp2_6hr” value turned out to be 1.961; the “Ratio of metabolite abundance, Exp3_1hr” value is given as 0.6833; the “Ratio of metabolite abundance, Exp3_3hr” value is recorded as 0.575. For the same compound, the “Ratio of metabolite abundance, Exp3_6hr” value was 1.883.
In the case of `CC(C)[C@H](NC(=O)[C@H](C)NC(=O)[C@@H]1CCCN1)C(=O)N[C@@H](Cc1c[nH]cn1)C(=O)O` [PAVH], the “Ratio of metabolite abundance, Exp1_1hr” value was found to be 0.3897; the “Ratio of metabolite abundance, Exp1_3hr” value stood at 0.1614; the “Ratio of metabolite abundance, Exp1_6hr” value is 0.8308; the “Ratio of metabolite abundance, Exp2_1hr” value amounted to 0.6106. Moreover, the “Ratio of metabolite abundance, Exp2_3hr” value stood at 0.3696; the “Ratio of metabolite abundance, Exp2_6hr” value is reported as 0.9246; the “Ratio of metabolite abundance, Exp3_1hr” value is given as 0.514; the “Ratio of metabolite abundance, Exp3_3hr” value was 0.3038. Also, the “Ratio of metabolite abundance, Exp3_6hr” value was found to be 1.108.
In the case of `CC(C)[C@H](NC(=O)[C@H](C)NC(=O)[C@H](CC(=O)O)NC(=O)[C@@H]1CCCN1)C(=O)O` [PDAV] (H-PDAV-OH), the “Ratio of metabolite abundance, Exp1_1hr” value is 1.025; the “Ratio of metabolite abundance, Exp1_3hr” value is 1.041; the “Ratio of metabolite abundance, Exp1_6hr” value was found to be 2.029; the “Ratio of metabolite abundance, Exp2_1hr” value turned out to be 1.45. Also, the “Ratio of metabolite abundance, Exp2_3hr” value is 1.498; the “Ratio of metabolite abundance, Exp2_6hr” value is recorded as 2.552; the “Ratio of metabolite abundance, Exp3_1hr” value worked out at 1.376; the “Ratio of metabolite abundance, Exp3_3hr” value is reported as 1.38. For the same compound, the “Ratio of metabolite abundance, Exp3_6hr” value is listed as 2.341.
As for `O=C(O)C[C@H](NC(=O)[C@@H]1CCCN1)C(=O)O` [PD] (H-Pro-Asp-OH), the “Ratio of metabolite abundance, Exp1_1hr” value was found to be 1.093; the “Ratio of metabolite abundance, Exp1_3hr” value is on record as 0.9772; the “Ratio of metabolite abundance, Exp1_6hr” value is listed as 1.538; the “Ratio of metabolite abundance, Exp2_1hr” value was 1.264. Further, the “Ratio of metabolite abundance, Exp2_3hr” value stood at 1.209; the “Ratio of metabolite abundance, Exp2_6hr” value is 2.9187; the “Ratio of metabolite abundance, Exp3_1hr” value is reported as 1.287; the “Ratio of metabolite abundance, Exp3_3hr” value is 1.3146. Moreover, the “Ratio of metabolite abundance, Exp3_6hr” value worked out at 2.682.
`O=C(O)CC[C@H](NC(=O)[C@H](CCC(=O)O)NC(=O)[C@@H]1CCCN1)C(=O)O` [PEE] (H-Pro-Glu-Glu-OH): the “Ratio of metabolite abundance, Exp1_1hr” value was determined as 1.088; the “Ratio of metabolite abundance, Exp1_3hr” value is reported as 0.6949; the “Ratio of metabolite abundance, Exp1_6hr” value is 2.228; the “Ratio of metabolite abundance, Exp2_1hr” value is reported as 1.338. Besides, the “Ratio of metabolite abundance, Exp2_3hr” value worked out at 0.8845; the “Ratio of metabolite abundance, Exp2_6hr” value is reported as 1.822; the “Ratio of metabolite abundance, Exp3_1hr” value is listed as 1.136; the “Ratio of metabolite abundance, Exp3_3hr” value amounted to 1.044. Also, the “Ratio of metabolite abundance, Exp3_6hr” value is on record as 2.15.
On to `O=C(O)CC[C@H](NC(=O)[C@@H]1CCCN1)C(=O)O` [PE] (H-Pro-Glu-OH), for which the “Ratio of metabolite abundance, Exp1_1hr” value was 2.339; the “Ratio of metabolite abundance, Exp1_3hr” value is listed as 1.989; the “Ratio of metabolite abundance, Exp1_6hr” value stood at 3.207; the “Ratio of metabolite abundance, Exp2_1hr” value turned out to be 2.25. Further, the “Ratio of metabolite abundance, Exp2_3hr” value came out at 1.648; the “Ratio of metabolite abundance, Exp2_6hr” value was found to be 3.078; the “Ratio of metabolite abundance, Exp3_1hr” value was 2.352; the “Ratio of metabolite abundance, Exp3_3hr” value amounted to 2.042. Besides, the “Ratio of metabolite abundance, Exp3_6hr” value turned out to be 3.469.
As to `O=C(O)[C@H](Cc1ccccc1)NC(=O)[C@H](Cc1cnc[nH]1)NC(=O)[C@@H]1CCCN1` [PHF] (H-Pro-His-Phe-OH), the “Ratio of metabolite abundance, Exp1_1hr” value worked out at 1.822; the “Ratio of metabolite abundance, Exp1_3hr” value worked out at 0.7039; the “Ratio of metabolite abundance, Exp1_6hr” value came out at 1.872; the “Ratio of metabolite abundance, Exp2_1hr” value stood at 2.081. Besides, the “Ratio of metabolite abundance, Exp2_3hr” value was 1.353; the “Ratio of metabolite abundance, Exp2_6hr” value is listed as 2.7014; the “Ratio of metabolite abundance, Exp3_1hr” value is 2.437; the “Ratio of metabolite abundance, Exp3_3hr” value is 1.168. In addition, the “Ratio of metabolite abundance, Exp3_6hr” value came out at 1.525.
`CC(C)[C@H](NC(=O)[C@@H]1CCCN1C(=O)[C@@H]1CCCN1)C(=O)N[C@@H](CCC(N)=O)C(=O)O` [PPVQ] (H-PPVQ-OH): the “Ratio of metabolite abundance, Exp1_1hr” value is on record as 1.0595; the “Ratio of metabolite abundance, Exp1_3hr” value is 0.6401; the “Ratio of metabolite abundance, Exp1_6hr” value amounted to 0.763; the “Ratio of metabolite abundance, Exp2_1hr” value is recorded as 1.014. Further, the “Ratio of metabolite abundance, Exp2_3hr” value was found to be 0.8051; the “Ratio of metabolite abundance, Exp2_6hr” value is 0.8204; the “Ratio of metabolite abundance, Exp3_1hr” value came out at 0.973; the “Ratio of metabolite abundance, Exp3_3hr” value was 0.9388. Besides, the “Ratio of metabolite abundance, Exp3_6hr” value turned out to be 0.9472.
With `CC(C)[C@H](NC(=O)[C@@H]1CCCN1)C(=O)N[C@@H](CC(N)=O)C(=O)N[C@@H](Cc1ccccc1)C(=O)O` [PVNF] (H-PVNF-OH), the “Ratio of metabolite abundance, Exp1_1hr” value was 0.6556; the “Ratio of metabolite abundance, Exp1_3hr” value is listed as 0.3908; the “Ratio of metabolite abundance, Exp1_6hr” value is on record as 1.343; the “Ratio of metabolite abundance, Exp2_1hr” value turned out to be 0.8248. In addition, the “Ratio of metabolite abundance, Exp2_3hr” value was 0.5795; the “Ratio of metabolite abundance, Exp2_6hr” value is recorded as 1.295; the “Ratio of metabolite abundance, Exp3_1hr” value is listed as 0.9151; the “Ratio of metabolite abundance, Exp3_3hr” value is 0.7449. Further, the “Ratio of metabolite abundance, Exp3_6hr” value was found to be 2.085.
Take `CC(C)[C@H](NC(=O)[C@@H]1CCCN1)C(=O)N[C@@H](CCC(N)=O)C(=O)N[C@@H](C)C(=O)O` [PVQA] (H-PVQA-OH): the “Ratio of metabolite abundance, Exp1_1hr” value was 0.5661; the “Ratio of metabolite abundance, Exp1_3hr” value was determined as 0.3168; the “Ratio of metabolite abundance, Exp1_6hr” value is 0.8691; the “Ratio of metabolite abundance, Exp2_1hr” value was 0.7152. Besides, the “Ratio of metabolite abundance, Exp2_3hr” value worked out at 0.5356; the “Ratio of metabolite abundance, Exp2_6hr” value came to 0.8856; the “Ratio of metabolite abundance, Exp3_1hr” value came out at 0.5318; the “Ratio of metabolite abundance, Exp3_3hr” value stood at 0.3152. Also, the “Ratio of metabolite abundance, Exp3_6hr” value came out at 1.03.
`CC(C)[C@H](NC(=O)[C@@H]1CCCN1)C(=O)N[C@@H](CCC(N)=O)C(=O)O` [PVQ] (H-Pro-Val-Gln-OH): the “Ratio of metabolite abundance, Exp1_1hr” value came to 1.621; the “Ratio of metabolite abundance, Exp1_3hr” value is reported as 0.8912; the “Ratio of metabolite abundance, Exp1_6hr” value is listed as 2.731; the “Ratio of metabolite abundance, Exp2_1hr” value was 1.963. Also, the “Ratio of metabolite abundance, Exp2_3hr” value is reported as 1.4303; the “Ratio of metabolite abundance, Exp2_6hr” value turned out to be 3.535; the “Ratio of metabolite abundance, Exp3_1hr” value is on record as 1.9381; the “Ratio of metabolite abundance, Exp3_3hr” value was 1.515. Moreover, the “Ratio of metabolite abundance, Exp3_6hr” value turned out to be 2.354.
As for `O=C(O)C1CCCCN1` (stereo not drawn) [Pipecolate], the “Ratio of metabolite abundance, Exp1_1hr” value was 1.3778; the “Ratio of metabolite abundance, Exp1_3hr” value is given as 1.045; the “Ratio of metabolite abundance, Exp1_6hr” value turned out to be 1.52; the “Ratio of metabolite abundance, Exp2_1hr” value turned out to be 1.38. Besides, the “Ratio of metabolite abundance, Exp2_3hr” value is 1.052; the “Ratio of metabolite abundance, Exp2_6hr” value is reported as 2.481; the “Ratio of metabolite abundance, Exp3_1hr” value was found to be 1.352; the “Ratio of metabolite abundance, Exp3_3hr” value worked out at 1.13. The “Ratio of metabolite abundance, Exp3_6hr” value turned out to be 2.281.
